Measured values reported in US7368572B2, “Acetylene derivatives as inhibitors of histone deacetylase” (Pharmacyclics, Inc., priority 2003, dated 2008).
Structures can show the parent of a compound that is named as a salt.

Molecular target: HDAC-1 (Homo sapiens, UniProt Q13547)
Experiment: Inhibition of HDAC in vitro (fluorogenic acetyl-Gly-Ala-(N-acetyl-Lys)-AMC / trypsin assay)
Assay type: biochemical
Settings: HDAC-1 200 pM, 30 min preincubation, pH 7.4; inhibition constants obtained with BatchKi
Procedure: The HDAC inhibitory activity of the compounds of this invention in vitro was determined as follows.
Measurements were performed in a reaction volume of 100 μL using 96-well assay plates. HDAC-1 (200 pM final concentration) in reaction buffer (50 mM HEPES, 100 mM KCl, 0.001% Tween-20, 5% DMSO, pH 7.4) was mixed with inhibitor at various concentrations and allowed to incubate for 30 min, after which trypsin and acetyl-Gly-Ala-(N-acetyl-Lys)-AMC were added to final concentrations of 50 nM and 25 μM, respectively, to initiate the reaction. Negative control reactions were performed in the absence of inhibitor in replicates of eight.
The reactions were monitored in a fluorescence plate reader. After a 30 min lag time, the fluorescence was measured over a 30 min time frame using an excitation wavelength of 355 nm and a detection wavelength of 460 nm. The increase in fluorescence with time was used as the measure of the reaction rate. Inhibition constants were obtained using the program BatchKi (Kuzmic et al. Anal. Biochem. 286, 45-50, (2000)).

HDAC-1, sequence (Q13547 whole entry, species assumed): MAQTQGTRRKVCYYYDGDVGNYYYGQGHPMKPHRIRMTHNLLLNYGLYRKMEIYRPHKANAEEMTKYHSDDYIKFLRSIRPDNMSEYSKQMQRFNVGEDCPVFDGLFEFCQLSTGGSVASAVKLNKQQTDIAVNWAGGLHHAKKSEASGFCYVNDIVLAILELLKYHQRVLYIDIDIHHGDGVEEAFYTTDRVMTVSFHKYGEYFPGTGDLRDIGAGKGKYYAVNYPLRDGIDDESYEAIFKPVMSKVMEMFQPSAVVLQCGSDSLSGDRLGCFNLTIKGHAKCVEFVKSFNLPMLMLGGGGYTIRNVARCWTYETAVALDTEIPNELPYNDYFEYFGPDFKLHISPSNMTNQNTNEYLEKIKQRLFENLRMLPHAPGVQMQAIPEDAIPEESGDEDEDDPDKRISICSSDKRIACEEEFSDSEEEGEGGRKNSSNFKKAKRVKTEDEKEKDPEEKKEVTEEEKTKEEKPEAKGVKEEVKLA

Ki: 22 nM
SMILES: CN(C)Cc1c(C(=O)NCC#Cc2ccc(C(=O)NO)cc2)oc2ccccc12 [Compound 22, Table I, N-hydroxy-4-[3-(3-N,N-dimethylaminomethylbenzofiuran-2-ylcarbonylamino)prop-1-ynyl]-benzamide hydrochloride]
